System: rabbits with acute pulmonary hypertension

Row | SMILES | RVSP at one min after breathing NO (electrically generated NO (20, 40 or 80 ppm) produced on inspiration by prototype generator, 50% O2, RVSP 30 mmHg before NO breathing, FIG. 14) [mmHg] | right ventricular systolic pressure (RVSP) after U46619 infusion (anesthetized rabbits, continuous infusion over 60 mins, RVSP increased from baseline 14±2 mmHg)
1 | [N]=O [NO, nitric oxide] | 24 | 
2 | CCCCC[C@H](O)/C=C/[C@@H]1[C@@H](C/C=C\CCCC(=O)O)[C@H]2CO[C@@H]1C2 [U46619] |  | 28-30 mmHg
